# Experimental data from US20180055050A1 (priority 2016, published 2018).
# System: Rice Blast
# Set-up: species or system Magnaporthe oryzae
# Details: in vivo
smiles,measurement,value
COc1ccnc(C(=O)N[C@H]2COC(=O)[C@H](Cc3ccccc3)[C@@H](OC(=O)C(C)C)[C@H](C)OC2=O)c1OCOC(=O)C(C)C [Compound I],Flag Leaf (% INFECT),B (key: A: 1-25; B: 26-50; C: 51-75; D: 76-100; E: Not tested)
same,Panicles (% INCID),B (key: A: 1-25; B: 26-50; C: 51-75; D: 76-100; E: Not tested)
same,Panicles (% INFECT),B (key: A: 1-25; B: 26-50; C: 51-75; D: 76-100; E: Not tested)
